Data published in patent US20240383852A1, “ANTI-VIRAL COMPOUNDS” (INFEX Therapeutics Limited, priority 2021, published 2024).
Structures can show the parent of a compound that is named as a salt.

Columns and labels:
[1] = tested on: human Hep G2 cells (ATCC HB-8065); test: Cytotoxicity in Hep G2 cells (CellTiter-Glo); type: cell-based; conditions: Hep G2 cells, 100 μM test article, 24-hour exposure
[2] = target: T1, SARS-CoV-2 PLpro (Severe acute respiratory syndrome coronavirus 2, UniProt P0DTD1); test: biochemical; conditions: 60 nM papain-like protease, 50 μM Z-RLRGG-AMC, pH 7.5, 37° C.; read-out: SARS-CoV-2 PLpro IC50
T1 construct: containing 60 nM papain-like protease

Row | SMILES | % Cell Viability [1] [%] | IC50 [2] [µM]
1 | Cc1ccc(N2CCN(C)CC2)cc1C(=O)N[C@H](C)c1cccc(-c2cccc(C(=O)N3CCCCC3)c2)c1 [Example 91, 2-Methyl-5-(4-methylpiperazin-1-yl)-N-[(1R)-1-[3-[3-(piperidine-1-carbonyl)phenyl]phenyl]ethyl]benzamide] | 27.1 | < 2
2 | Cc1ccc(N2CCN(C)CC2)cc1C(=O)N[C@H](C)c1cccc(-c2cccc(C(=O)N3CCOCC3)c2)c1 [Example 92, 2-Methyl-5-(4-methylpiperazin-1-yl)-N-[(1R)-1-[3-[3-(morpholine-4-carbonyl)phenyl]phenyl]ethyl]benzamide] | 76.9 | < 2
3 | Cc1ccc(N2CCN(C)CC2)cc1C(=O)N[C@H](C)c1cccc(-c2cccc(C(=O)NCCCN(C)C)c2)c1 [Example 93, N-[(1R)-1-[3-[3-[3-(Dimethylamino)propylcarbamoyl]phenyl]phenyl]ethyl]-2-methyl-5-(4-methylpiperazin-1-yl)benzamide] | 41.9 | < 2
4 | Cc1ccc(N2CCN(C)CC2)cc1C(=O)N[C@H](C)c1cccc(-c2cccc(C(=O)NCCN(C)C)c2)c1 [Example 94, N-[(1R)-1-[3-[3-[2-(Dimethylamino)ethylcarbamoyl]phenyl]phenyl]ethyl]-2-methyl-5-(4-methylpiperazin-1-yl)benzamide] | 17.3 | < 2
5 | Cc1ccc(N2CCN(C)CC2)cc1C(=O)N[C@H](C)c1cccc(-c2cccc(C(=O)N3CC[C@H](O)C3)c2)c1 [Example 95, N-[(1R)-1-[3-[3-[(3S)-3-Hydroxypyrrolidine-1-carbonyl]phenyl]phenyl]ethyl]-2-methyl-5-(4-methylpiperazin-1-yl)benzamide] | 88.5 | < 2
6 | Cc1ccc(N2CCN(C)CC2)cc1C(=O)N[C@H](C)c1cccc(CCC(=O)NCCO)c1 [Example 96, N-[(1R)-1-[3-[3-(2-Hydroxyethylamino)-3-oxo-propyl]phenyl]ethyl]-2-methyl-5-(4-methylpiperazin-1-yl)benzamide] | 97.3 | < 10
7 | Cc1ccc(N2CCN(C)CC2)cc1C(=O)N[C@H](C)c1cccc(-c2cccc(C(=O)NCCO)c2)c1 [Example 97, N-[(1R)-1-[3-[3-(2-Hydroxyethylcarbamoyl)phenyl]phenyl]ethyl]-2-methyl-5-(4-methylpiperazin-1-yl)benzamide] | 72.1 | < 2
8 | Cc1ccc(N2CCN(C)CC2)cc1C(=O)N[C@H](C)c1cccc(-c2cccc(C(=O)NCCN)c2)c1 [Example 98, N-[(1R)-1-[3-[3-(2-Aminoethylcarbamoyl)phenyl]phenyl]eth-yl]-2-methyl-5-(4-methylpiperazin-1-yl)benzamide] | 98.5 | < 2
9 | CNCCN(C)C(=O)c1cccc(-c2cccc([C@@H](C)NC(=O)c3cc(N4CCN(C)CC4)ccc3C)c2)c1 [Example 99, 2-Methyl-N-[(1R)-1-[3-[3-[methyl-[2-(methylamino)ethyl]carbamoyl]phenyl]phenyl]ethyl]-5-(4-methylpiperazin-1-yl)benzamide Hydrochloride Salt] | 104.6 | < 2
10 | COCCNC(=O)c1cc(-c2cccc([C@@H](C)NC(=O)c3cc(N4CCN(C)CC4)ccc3C)c2)cs1 [Example 100, N-(2-Methoxyethyl)-4-[3-[(1R)-1-[[2-methyl-5-(4-methylpiperazin-1-yl)benzoyl]amino]ethyl]phenyl]thiophene-2-carboxamide] | 65.9 | < 2
11 | Cc1ccc(N2CCN(C)CC2)cc1C(=O)N[C@H](C)c1cccc(-c2csc(C(=O)N(C)C)c2)c1 [Example 101, N,N-Dimethyl-4-[3-[(1R)-1-[[2-methyl-5-(4-methylpiperazin-1-yl)benzoyl]amino]ethyl]phenyl]thiophene-2-carboxamide] | 88.1 | < 2
12 | Cc1ccc(N2CCN(C)CC2)cc1C(=O)N[C@H](C)c1cccc(N2CCN(C)CC2)c1 [Example 103, 2-Methyl-5-(4-methylpiperazin-1-yl)-N-[(1R)-1-[3-(4-methylpiperazin-1-yl)phenyl]ethyl]benzamide] | 91.4 | < 5
13 | Cc1ccc(N2CCN(C)CC2)cc1C(=O)N[C@H](C)c1cccc(N2CCNCC2)c1 [Example 105, 2-Methyl-5-(4-methylpiperazin-1-yl)-N-[(1R)-1-(3-piperazin-1-ylphenyl)ethyl]benzamide] | 113.3 | < 5
14 | Cc1ccc(N2CCN(C)CC2)cc1C(=O)N[C@H](C)c1ccc(N2CCNCC2)cc1 [Example 106, 2-Methyl-5-(4-methylpiperazin-1-yl)-N-[(1R)-1-(4-piperazin-1-ylphenyl)ethyl]benzamide] | 87.4 | < 5
15 | Cc1ccc(N2CCN(C)CC2)cc1C(=O)N[C@H](C)c1cccc(N2CC(CO)OC2=O)c1 (stereo partly drawn) [Example 107, N-[(1R)-1-[3-[5-(Hydroxymethyl)-2-oxo-oxazolidin-3-yl]phenyl]ethyl]-2-methyl-5-(4-methylpiperazin-1-yl)benzamide] | 100.7 | < 5
16 | Cc1ccc(N2CCNCC2)cc1C(=O)N[C@H](C)c1cccc2ccccc12 [Example 108, 2-Methyl-N-[(1R)-1-(1-naphthyl)ethyl]-5-piperazin-1-yl-benzamide] | 2.1 | < 2

Row | SMILES | % Cell Viability [1] [%] | IC50 [2] [µM]
17 | CC(=O)N1CCN(c2ccc(C)c(C(=O)N[C@H](C)c3cccc4ccccc34)c2)CC1 [Example 109, 5-(4-Acetylpiperazin-1-yl)-2-methyl-N-[(1R)-1-(1-naphthyl)ethyl]benzamide] | 72.9 | < 10
18 | Cc1ccc(N2CCN(CCO)CC2)cc1C(=O)N[C@H](C)c1cccc2ccccc12 [Example 111, 5-[4-(2-Hydroxyethyl)piperazin-1-yl]-2-methyl-N-[(1R)-1-(1-naphthyl)ethyl]benzamide] | 74.8 | < 2
19 | Cc1ccc(N2CCN(CCO)CC2)cc1C(=O)N[C@H](C)c1cccc(-c2cnn(C)c2)c1 [Example 112, 5-[4-(2-Hydroxyethyl)piperazin-1-yl]-2-methyl-N-[(1R)-1-[3-(1-methylpyrazol-4-yl)phenyl]ethyl]benzamide] | 41.0 | < 2
20 | Cc1ccc(N2CCN(CC(=O)N(C)C)CC2)cc1C(=O)N[C@H](C)c1cccc(-c2cnn(C)c2)c1 [Example 113, 5-[4-[2-(Dimethylamino)-2-oxo-ethyl]piperazin-1-yl]-2-methyl-N-[(1R)-1-[3-(1-methylpyrazol-4-yl)phenyl]ethyl]benzamide] | 72.7 | < 20
21 | COCCN1CCN(c2ccc(C)c(C(=O)N[C@H](C)c3cccc(-c4cnn(C)c4)c3)c2)CC1 [Example 114, 5-[4-(2-Methoxyethyl)piperazin-1-yl]-2-methyl-N-[(1R)-1-[3-(1-methylpyrazol-4-yl)phenyl]ethyl]benzamide] | 59.0 | < 5
22 | Cc1ccc(N2CCN(C3CC3)CC2)cc1C(=O)N[C@H](C)c1cccc2ccccc12 [Example 115, 5-(4-Cyclopropylpiperazin-1-yl)-2-methyl-N-[(1R)-1-(1-naphthyl)ethyl]benzamide] | 26.7 | < 2
23 | Cc1ccc(N2CCOCC2)cc1C(=O)N[C@H](C)c1cccc2ccccc12 [Example 116, 2-Methyl-5-morpholino-N-[(1R)-1-(1-naphthyl)ethyl]benzamide] | 66.6 | < 10
24 | Cc1ccc(N2CCN(C3COC3)CC2)cc1C(=O)N[C@H](C)c1cccc2ccccc12 [Example 117, 2-Methyl-N-[(1R)-1-(1-naphthyl)ethyl]-5-[4-(oxetan-3-yl)piperazin-1-yl]benzamide] | 61.1 | < 5
25 | Cc1ccc(N2CCN(CC3CC3)CC2)cc1C(=O)N[C@H](C)c1cccc2ccccc12 [Example 118, 5-[4-(Cyclopropylmethyl)piperazin-1-yl]-2-methyl-N-[(1R)-1-(1-naphthyl)ethyl]benzamide] | 6.6 | < 2
26 | Cc1ccc(N2C[C@H]3C[C@@H]2CN3C)cc1C(=O)N[C@H](C)c1cccc2ccccc12 [Example 121, 2-Methyl-5-[(1R,4R)-5-methyl-2,5-diazabicyclo[2.2.1]heptan-2-yl]-N-[(1R)-1-(naphthalen-1-yl)ethyl]benzamide] | 75.1 | < 2
27 | Cc1ccc(N2C[C@H]3C[C@@H]2CN3C)cc1C(=O)N[C@H](C)c1cccc2c1OCO2 [Example 122, N-[(1R)-1-(1,3-benzodioxol-4-yl)ethyl]-2-methyl-5-[(1R,4R)-5-methyl-2,5-diazabicyclo[2.2.1]heptan-2-yl]benzamide] | 95.4 | < 5
28 | Cc1ccc(N2C[C@H]3C[C@@H]2CN3C)cc1C(=O)N[C@H](C)c1cccc(Br)c1 [Example 123, N-[(1R)-1-(3-bromophenyl)ethyl]-2-methyl-5-[(1R,4R)-5-methyl-2,5-diazabicyclo[2.2.1]heptan-2-yl]benzamide] | 32.9 | < 2
29 | Cc1ccc(N2CCN(C)CC2)c(C)c1C(=O)N[C@H](C)c1cccc2ccccc12 [Example 124, 2,6-Dimethyl-3-(4-methylpiperazin-1-yl)-N-[(1R)-1-(1-naphthyl)ethyl]benzamide] | 37.4 | < 2
30 | Cc1ccc(N2CCN3CCCC3C2)cc1C(=O)N[C@H](C)c1cccc2ccccc12 (stereo partly drawn) [Example 125, 5-(3,4,6,7,8,8a-Hexahydro-1H-pyrrolo[1,2-a]pyrazin-2-yl)-2-methyl-N-[(1R)-1-(1-naphthyl)ethyl]benzamide hydrochloride salt] | 55.8 | < 2
31 | Cc1ccc(N2CCN(C)C(C)C2)cc1C(=O)N[C@H](C)c1cccc2ccccc12 (stereo partly drawn) [Example 126, 5-(3,4-Dimethylpiperazin-1-yl)-2-methyl-N-[(1R)-1-(1-naphthyl)ethyl]benzamide] | 62.8 | < 2
